This experiment addresses human sodium ion channel 1.7 (hNav1.7) (Homo sapiens, UniProt Q15858). The experiment is described as follows: Blocking effect against sodium ion channel Nav1.7, IonFlux16 auto patch clamp in hNav1.7 HEK293 cells. The class given is cell-based. A general note: In patch-clamp work, channel activity is measured electrically.
The mark [1] stands for this setting: hNav1.7 HEK293 cells, inhibition of peak current after 50 seconds treatment, eight concentrations, read-out: IC50.

The structures appear in SMILES notation. Like-named read-outs stand apart in the source and are kept apart here.

human sodium ion channel 1.7 (hNav1.7), sequence (Q15858 whole entry): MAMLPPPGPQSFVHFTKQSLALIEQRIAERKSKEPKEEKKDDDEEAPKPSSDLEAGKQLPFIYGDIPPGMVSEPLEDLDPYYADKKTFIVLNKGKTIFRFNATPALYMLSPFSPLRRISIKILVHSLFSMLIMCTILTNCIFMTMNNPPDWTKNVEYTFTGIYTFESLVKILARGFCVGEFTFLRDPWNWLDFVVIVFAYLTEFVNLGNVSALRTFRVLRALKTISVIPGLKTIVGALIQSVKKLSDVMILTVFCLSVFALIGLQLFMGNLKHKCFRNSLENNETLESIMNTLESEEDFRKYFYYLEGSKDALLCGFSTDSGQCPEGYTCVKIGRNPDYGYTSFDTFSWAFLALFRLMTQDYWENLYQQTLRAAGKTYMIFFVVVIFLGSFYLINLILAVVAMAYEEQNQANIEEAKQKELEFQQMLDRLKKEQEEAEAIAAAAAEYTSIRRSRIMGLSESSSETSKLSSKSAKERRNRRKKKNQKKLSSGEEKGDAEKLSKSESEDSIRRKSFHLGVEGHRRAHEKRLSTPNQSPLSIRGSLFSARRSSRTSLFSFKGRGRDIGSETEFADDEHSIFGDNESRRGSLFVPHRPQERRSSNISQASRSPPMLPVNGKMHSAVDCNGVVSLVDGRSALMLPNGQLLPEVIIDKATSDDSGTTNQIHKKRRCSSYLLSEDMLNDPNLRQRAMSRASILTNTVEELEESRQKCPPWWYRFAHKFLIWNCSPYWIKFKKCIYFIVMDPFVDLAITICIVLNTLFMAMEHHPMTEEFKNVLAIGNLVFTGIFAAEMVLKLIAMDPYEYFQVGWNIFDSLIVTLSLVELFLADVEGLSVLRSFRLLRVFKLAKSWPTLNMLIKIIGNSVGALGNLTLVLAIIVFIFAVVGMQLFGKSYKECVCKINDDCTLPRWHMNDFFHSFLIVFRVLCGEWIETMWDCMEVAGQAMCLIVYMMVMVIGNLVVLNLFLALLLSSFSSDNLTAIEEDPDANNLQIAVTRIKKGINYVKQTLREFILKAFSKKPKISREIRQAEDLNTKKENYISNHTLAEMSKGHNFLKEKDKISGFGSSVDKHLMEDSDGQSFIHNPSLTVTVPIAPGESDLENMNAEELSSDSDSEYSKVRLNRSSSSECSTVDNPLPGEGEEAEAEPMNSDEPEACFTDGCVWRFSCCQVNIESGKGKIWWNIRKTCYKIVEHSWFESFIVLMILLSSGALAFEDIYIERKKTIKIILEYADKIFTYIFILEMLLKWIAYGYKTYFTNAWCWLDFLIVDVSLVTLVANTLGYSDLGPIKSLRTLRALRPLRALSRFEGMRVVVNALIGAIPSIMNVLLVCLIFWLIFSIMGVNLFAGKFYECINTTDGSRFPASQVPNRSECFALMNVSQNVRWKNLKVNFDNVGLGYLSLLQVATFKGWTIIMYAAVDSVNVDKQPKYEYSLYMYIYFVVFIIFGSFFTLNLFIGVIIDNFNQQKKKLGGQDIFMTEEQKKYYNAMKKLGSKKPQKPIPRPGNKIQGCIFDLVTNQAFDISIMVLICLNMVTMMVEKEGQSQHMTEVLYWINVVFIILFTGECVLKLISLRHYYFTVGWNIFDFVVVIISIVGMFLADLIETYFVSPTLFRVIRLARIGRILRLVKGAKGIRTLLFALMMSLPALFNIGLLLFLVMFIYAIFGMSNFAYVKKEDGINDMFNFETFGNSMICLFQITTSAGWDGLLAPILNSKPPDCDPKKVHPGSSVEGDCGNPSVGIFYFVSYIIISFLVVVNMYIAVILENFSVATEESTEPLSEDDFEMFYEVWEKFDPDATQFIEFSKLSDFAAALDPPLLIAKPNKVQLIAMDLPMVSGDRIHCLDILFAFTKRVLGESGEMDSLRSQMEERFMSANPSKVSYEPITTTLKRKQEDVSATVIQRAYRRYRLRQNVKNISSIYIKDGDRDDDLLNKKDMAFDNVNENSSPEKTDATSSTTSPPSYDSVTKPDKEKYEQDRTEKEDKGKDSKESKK

In the case of `CS(=O)(=O)NC(=O)c1cc(Cl)c(-n2nc(Cl)c3c(Cl)c(OCc4ccccc4F)ccc32)cc1F` [Example 32, 5-chloro-4-(3,4-dichloro-5-((2-fluorobenzyl)oxy)-1H-indazol-1-yl)-2-fluoro-N-(methylsulfonyl)benzamide], the half-inhibitory concentration (IC50) under setting [1] was found to be 158 nM.
Still for that read-out and setting: to `CS(=O)(=O)NC(=O)c1cc(Cl)c(-n2nc(-c3ccc(F)cc3F)c3ccccc32)cc1F` [Example 176, 5-chloro-4-(3-(2,4-difluorophenyl)-1H-indazol-1-yl)-2-fluoro-N-(methylsulfonyl)benzamide] belongs 200 nM; to `CC(Oc1ccc2c(c1)c(Cl)nn2-c1cc(F)c(C(=O)NS(C)(=O)=O)cc1Cl)c1ccccc1` (stereo not drawn) [Example 33, 5-chloro-4-(3-chloro-5-(1-phenylethoxy)-1H-indazol-1-yl)-2-fluoro-N-(methylsulfonyl)benzamide], 214 nM.
The same measure, in the same setting: under `COc1ccc(-c2ccc3c(c2)c(Cl)nn3-c2cc(F)c(C(=O)NS(C)(=O)=O)cc2Cl)cc1` [Example 248, 5-chloro-4-(3-chloro-5-(4-methoxyphenyl)-1H-indazol-1-yl)-2-fluoro-N-(methylsulfonyl)benzamide] stands 88 nM.
With `COc1ccccc1-c1nn(-c2cc(F)c(C(=O)NS(C)(=O)=O)cc2Cl)c2ccc(F)cc12` [Example 146, 5-chloro-2-fluoro-4-(5-fluoro-3-(2-methoxyphenyl)-1H-indazol-1-yl)-N-(methylsulfonyl)benzamide], under setting [1], the IC50 was 200 nM.
Same read-out and setting: under `O=c1[nH]nc(-c2cc(Cl)c(-n3nc(-c4ccc(Cl)cc4F)c4cc(Cl)ccc43)cc2F)[nH]1` [Example 291, 5-(5-chloro-4-(5-chloro-3-(4-chloro-2-fluorophenyl)-1H-indazol-1-yl)-2-fluorophenyl)-2,4-dihydro-3H-1,2,4-triazol-3-one] stands 10800 nM.
The same measure, in the same setting: to `COc1ncccc1-c1nn(-c2cc(Cl)c(C(=O)NS(C)(=O)=O)cc2F)c2ccc(Cl)cc12` [Example 116, 2-chloro-4-(5-chloro-3-(2-methoxypyridin-3-yl)-1H-indazol-1-yl)-5-fluoro-N-(methylsulfonyl)benzamide] belongs 3000 nM; to `CS(=O)(=O)NC(=O)c1cc(Cl)c(-n2nc(Cl)c3cc(F)ccc32)cc1F` [Example 17, 5-chloro-4-(3-chloro-5-fluoro-1H-indazol-1-yl)-2-fluoro-N-(methylsulfonyl)benzamide], 476 nM; to `CS(=O)(=O)NC(=O)c1cc(Cl)c(-n2nc(Cl)c3cc(OCc4ccc(F)cc4)ccc32)cc1F` [Example 36, 5-chloro-4-(3-chloro-5-((4-fluorobenzyl)oxy)-1H-indazol-1-yl)-2-fluoro-N-(methylsulfonyl)benzamide], 87 nM.
Same read-out and setting: to `CS(=O)(=O)NC(=O)c1cc(Cl)c(-n2nc(-c3ccc(F)cc3)c3ccccc32)cc1F` [Example 179, 5-chloro-2-fluoro-4-(3-(4-fluorophenyl)-1H-indazol-1-yl)-N-(methylsulfonyl)benzamide] belongs 390 nM; to `CC(=O)Nc1nn(-c2cc(F)c(C(=O)NS(C)(=O)=O)cc2Cl)c2ccc(Cl)cc12` [Example 6, 4-(3-acetamido-5-chloro-1H-indazol-1-yl)-5-chloro-2-fluoro-N-(methylsulfonyl)benzamide], over 10000 nM.
As for `COc1ccc(-c2nn(-c3cc(F)c(C(=O)NS(C)(=O)=O)cc3Cl)c3ccc(Cl)cc23)cc1` [Example 59, 5-chloro-4-(5-chloro-3-(4-methoxyphenyl)-1H-indazol-1-yl)-2-fluoro-N-(methylsulfonyl)benzamide], the IC50 under setting [1] was 108 nM.
Same read-out and setting: to `CS(=O)(=O)NC(=O)c1cc(Cl)c(-n2nc(-c3c(F)cccc3Cl)c3cc(Cl)ccc32)cc1F` [Example 78, 5-chloro-4-(5-chloro-3-(2-chloro-6-fluorophenyl)-1H-indazol-1-yl)-2-fluoro-N-(methylsulfonyl)benzamide] belongs 130 nM; to `CS(=O)(=O)NC(=O)c1cc(Cl)c(-n2nc(Cl)c3cc(-c4cncc(Cl)c4)ccc32)cc1F` [Example 242, 5-chloro-4-(3-chloro-5-(5-chloropyridin-3-yl)-1H-indazol-1-yl)-2-fluoro-N-(methylsulfonyl)benzamide], 809 nM.
`CS(=O)(=O)NC(=O)c1cc(Cl)c(-n2ncc3cc(Cl)ncc32)cc1F` [Example 10, 5-chloro-4-(5-chloro-1H-pyrazolo[3,4-c]pyridin-1-yl)-2-fluoro-N-(methylsulfonyl)benzamide]: the IC50 under setting [1] is over 10000 nM.
The same measure, in the same setting: under `CS(=O)(=O)NC(=O)c1cc(Cl)c(-n2nc(-c3cncc(Cl)c3)c3cc(Cl)ccc32)cc1F` [Example 51, 5-chloro-4-(5-chloro-3-(5-chloropyridin-3-yl)-1H-indazol-1-yl)-2-fluoro-N-(methylsulfonyl)benzamide] stands 187 nM; under `CS(=O)(=O)NC(=O)c1cc(Cl)c(-n2nc(-c3cccc(Cl)c3F)c3cc(F)ccc32)cc1F` [Example 163, 5-chloro-4-(3-(3-chloro-2-fluorophenyl)-5-fluoro-1H-indazol-1-yl)-2-fluoro-N-(methylsulfonyl)benzamide], 120 nM.
The same measure, in the same setting: to `CS(=O)(=O)NC(=O)c1cc(Cl)c(-n2cc(-c3ccc(Cl)cc3)c3cc(Cl)cnc32)cc1F` [Example 195, 5-chloro-4-(5-chloro-3-(4-chlorophenyl)-1H-pyrrolo[2,3-b]pyridin-1-yl)-2-fluoro-N-(methylsulfonyl)benzamide] belongs 80 nM; to `CS(=O)(=O)NC(=O)c1cc(Cl)c(-n2nc(Cl)c3cc(OCc4cccc(F)c4)ccc32)cc1F` [Example 38, 5-chloro-4-(3-chloro-5-((3-fluorobenzyl)oxy)-1H-indazol-1-yl)-2-fluoro-N-(methylsulfonyl)benzamide], 98 nM; to `CS(=O)(=O)NC(=O)c1cc(Cl)c(-n2nc(-c3c(F)cccc3Cl)c3cc(F)ccc32)cc1F` [Example 162, 5-chloro-4-(3-(2-chloro-6-fluorophenyl)-5-fluoro-1H-indazol-1-yl)-2-fluoro-N-(methylsulfonyl)benzamide], 640 nM.
As for `CS(=O)(=O)NC(=O)c1cc(Cl)c(-n2cc(-c3ccc(Cl)cc3F)c3cc(Cl)cnc32)cc1F` [Example 189, 5-chloro-4-(5-chloro-3-(4-chloro-2-fluorophenyl)-1H-pyrrolo[2,3-b]pyridin-1-yl)-2-fluoro-N-(methylsulfonyl)benzamide], the IC50 under setting [1] amounted to 110 nM.
In the case of `CS(=O)(=O)NC(=O)c1cc(Cl)c(-n2nc(-c3cc(F)ccc3F)c3cc(Cl)ccc32)cc1F` [Example 76, 5-chloro-4-(5-chloro-3-(2,5-difluorophenyl)-1H-indazol-1-yl)-2-fluoro-N-(methylsulfonyl)benzamide], 90 nM corresponded to half-maximal inhibition (IC50).
As to `CN(C)S(=O)(=O)NC(=O)c1cc(Cl)c(-n2nc(Cl)c3cc(OCc4ccccc4)ccc32)cc1F` [Example 43, 4-(5-(benzyloxy)-3-chloro-1H-indazol-1-yl)-5-chloro-N—(N,N-dimethylsulfamoyl)-2-fluorobenzamide], the IC50 under setting [1] was found to be 200 nM.
Same read-out and setting: under `CS(=O)(=O)NC(=O)c1cc(Cl)c(-n2nc(-c3cccc(Cl)c3)c3cc(F)ccc32)cc1F` [Example 149, 5-chloro-4-(3-(3-chlorophenyl)-5-fluoro-1H-indazol-1-yl)-2-fluoro-N-(methylsulfonyl)benzamide] stands 40 nM.
Still for that read-out and setting: to `CN(C(=O)c1cc(Cl)c(-n2nc(-c3ccc(Cl)cc3F)c3cc(Cl)ccc32)cc1F)S(C)(=O)=O` [Example 139, 5-chloro-4-(5-chloro-3-(4-chloro-2-fluorophenyl)-1H-indazol-1-yl)-2-fluoro-N-methyl-N-(methylsulfonyl)benzamide] belongs 1430 nM; to `CS(=O)(=O)NC(=O)c1cc(Cl)c(-n2nc(-c3ccc(Cl)c(F)c3)c3cc(Cl)ccc32)cc1F` [Example 80, 5-chloro-4-(5-chloro-3-(4-chloro-3-fluorophenyl)-1H-indazol-1-yl)-2-fluoro-N-(methylsulfonyl)benzamide], 80 nM; to `Cc1cc(F)ccc1-c1cn(-c2cc(F)c(C(=O)NS(C)(=O)=O)cc2Cl)c2ncc(Cl)cc12` [Example 200, 5-chloro-4-(5-chloro-3-(4-fluoro-2-methylphenyl)-1H-pyrrolo[2,3-b]pyridin-1-yl)-2-fluoro-N-(methylsulfonyl)benzamide], 90 nM.
Still for that read-out and setting: to `CS(=O)(=O)NC(=O)c1cc(Cl)c(-n2cc(-c3ccc(C(F)(F)F)cc3)c3cc(F)cnc32)cc1F` [Example 205, 5-chloro-2-fluoro-4-(5-fluoro-3-(4-(trifluoromethyl)phenyl)-1H-pyrrolo[2,3-b]pyridin-1-yl)-N-(methylsulfonyl)benzamide] belongs 50 nM; to `CS(=O)(=O)NC(=O)c1cc(Cl)c(-n2nc(/C=C/c3ccc(C(F)(F)F)cc3)c3cc(Cl)ccc32)cc1F` [Example 137, (E)-5-chloro-4-(5-chloro-3-(4-(trifluoromethyl)styryl)-1H-indazol-1-yl)-2-fluoro-N-(methylsulfonyl)benzamide], 680 nM.
Consider `CS(=O)(=O)NC(=O)c1cc(Cl)c(-n2cc(-c3ccc(F)cc3Cl)c3cc(F)cnc32)cc1F` [Example 202, 5-chloro-4-(3-(2-chloro-4-fluorophenyl)-5-fluoro-1H-pyrrolo[2,3-b]pyridin-1-yl)-2-fluoro-N-(methylsulfonyl)benzamide], for which, under setting [1], the IC50 is 50 nM.
Consider `CS(=O)(=O)NC(=O)c1cc(Cl)c(-n2cc(-c3ccc(Cl)cc3F)c3cc(F)cnc32)cc1F` [Example 201, 5-chloro-4-(3-(4-chloro-2-fluorophenyl)-5-fluoro-1H-pyrrolo[2,3-b]pyridin-1-yl)-2-fluoro-N-(methylsulfonyl)benzamide], for which, under setting [1], the 50% inhibitory concentration (IC50) came out at 70 nM.
Regarding `CS(=O)(=O)NC(=O)c1cc(Cl)c(-n2nc(Cl)c3cc(C(F)(F)F)ccc32)cc1F` [Example 18, 5-chloro-4-(3-chloro-5-(trifluoromethyl)-1H-indazol-1-yl)-2-fluoro-N-(methylsulfonyl)benzamide], the IC50 under setting [1] turned out to be 587 nM.
For `CS(=O)(=O)NC(=O)c1cc(Cl)c(-n2nc(-c3ccc(Cl)cc3)c3cc(C4CC4)ccc32)cc1F` [Example 85, 5-chloro-4-(3-(4-chlorophenyl)-5-cyclopropyl-1H-indazol-1-yl)-2-fluoro-N-(methylsulfonyl)benzamide], the IC50 under setting [1] turned out to be 600 nM.

By IC50 is commonly meant the concentration at which inhibition is half-maximal.

The record behind these values is patent publication US10590078B2, “Sodium channel blockers” (Daewoong Pharmaceutical Co., Ltd., priority 2015, dated 2020).
